Test results published in article PMC6694155, “PTPσ inhibitors promote hematopoietic stem cell regeneration” (Nature Communications, 2019).
“And” between values parts separate entries of the source, which are not always exact repeats. Equal entries are not always repeated.

Experiments:
[1] = system: DsRed+ BM sca-1+lin− cells in irradiated C57BL/6 mice; assay: Homing study; format: in vivo, mouse
Description: Sorted BM sca-1^+lin^− cells (100,000) from DsRed^+ mice were transplanted into lethally irradiated (950 cGy) recipient C57BL/6 mice followed by subcutaneous treatment of 5 mg/kg DJ001 or vehicle × 1 dose. At 18 h post transplantation, BM cells were collected from the recipient mice and were analyzed for percentages of DsRed^+ cells in the BM[17].

BM KSL cells = assay: CFC assay after lentiviral shRac1 or shBcl2l1 silencing and 300 cGy; format: cell-based, mouse; conditions: for Figure 3i: BFU-E / Figure 3i: CFU-GM / Figure 3i: GEMM: 300 cGy, replicates
Description: Rac1 CDS-targeting- and Bcl2l1 CDS-targeting shRNA in lentiviral plasmid (TRCN0000310888 and TRCN0000004685) and control shRNA (SHC216V) were purchased from Sigma Aldrich. […]. Viral particles were collected after 24 h and 48 h. […] Infected cells were collected the next day and irradiated with 300 cGy followed by treatment with or without 1 μg/mL DJ001, prior to CFC assay.
CFC assays (colony-forming unit-granulocyte monocyte), burst-forming unit-erythroid, and CFU-GEMM were performed using MethoCult GF M3434 (Stemcell Technologies)[6]. For all in vitro assays, BM CD34^−KSL cells, KSL cells, and Lin^− cells were cultured in TSF media (IMDM, 10% FBS, 1% pen-strep, 20 ng/mL recombinant mouse TPO, 125 ng/mL recombinant mouse SCF, 50 ng/mL recombinant mouse Flt3 ligand). Recombinant mouse SCF, Flt3 ligand, and TPO were purchased from R&D Systems. For competitive repopulation assays, BM cells were isolated from donor 10–12-week-old female CD45.2^+ mice. Recipient 10-week-old female CD45.1^+ B6.SJL mice were irradiated with 950 cGy TBI using a Cs137 irradiator and donor BM cells were administered via tail vein injection along with a competing dose of 1 × 10^5 non-irradiated host BM cells. Multilineage donor hematopoietic cell engraftment was measured in the PB by flow cytometry.

BCL-XL in BM KSL cells = assay: BCL-XL protein intracellular flow cytometry of BM KSL cells; format: cell-based, mouse
Description: Intracellular flow cytometric analysis was performed on irradiated (300 cGy) or non-irradiated, sorted KSL cells after treatment with 1 μg/mL DJ001 or control (equal volumes of DMSO) for 24 h. At 24 h after irradiation, cells were fixed with 4% PFA for 10 min, followed by permeabilization using 0.25% saponin in PBS. Cells were washed again and stained with antibody at the recommended concentrations for 30 min at RT. Intracellular antibodies and phospho-flow antibodies used were as follows: FITC-conjugated anti-BCL-XL (Abcam, #26148, 1:100), active RAC1-GTP antibody (NewEast Biosciences, #26903, 1:100) and anti-PAK1 (phospho S144) + PAK2 (phospho S141) + PAK3 (phospho S154) antibody (Abcam, #40795, 1:100), and FITC-conjugated goat anti-rabbit IgG H&L (Abcam, #97050, 1:200).

PTPσ = molecular target: T1, PTPσ (Mus musculus, UniProt B0V2N1); assay: Substrate titration of PTPσ (Km, Vmax, mechanism of inhibition); format: biochemical
T1 sequence (B0V2N1 1326-1907): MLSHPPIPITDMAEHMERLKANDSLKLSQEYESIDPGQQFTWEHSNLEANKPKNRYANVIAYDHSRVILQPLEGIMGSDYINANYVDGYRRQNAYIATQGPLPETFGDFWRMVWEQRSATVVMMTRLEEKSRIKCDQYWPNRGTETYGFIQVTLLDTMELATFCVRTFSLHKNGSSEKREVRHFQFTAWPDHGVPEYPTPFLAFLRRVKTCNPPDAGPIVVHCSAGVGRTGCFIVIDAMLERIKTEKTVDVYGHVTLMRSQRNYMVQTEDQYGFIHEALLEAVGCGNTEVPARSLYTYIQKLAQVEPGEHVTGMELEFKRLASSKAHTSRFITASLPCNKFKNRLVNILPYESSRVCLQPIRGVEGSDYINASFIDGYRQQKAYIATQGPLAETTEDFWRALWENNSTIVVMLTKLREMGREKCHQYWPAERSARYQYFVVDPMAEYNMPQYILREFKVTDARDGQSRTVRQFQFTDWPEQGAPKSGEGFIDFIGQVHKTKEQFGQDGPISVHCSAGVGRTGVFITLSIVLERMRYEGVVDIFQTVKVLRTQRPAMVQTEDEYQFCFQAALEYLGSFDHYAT
Description: The two intracellular catalytic domains (D1 and D2) of Ptprs were cloned into a pET28a vector, overexpressed in Escherichia coli BL21 and purified. Enzymatic activity of PTPσ was assayed using a modified version of the Malachite Green Assay[66] and the Tyrosine Phosphatase Assay Kit (Promega Corporation). Unless stated otherwise, standard assays were carried out using 50 nM PTPσ protein in 1× Buffer (10 mM Tris, 5 mM MgCl2, 10 mM NaCl, 0.02% Tween) and Tyr Phosphopeptide as substrate (200 μM for Fig. 1b, c, 50–1200 μM in Fig. 1c). Purified catalytic domain 1 and domain 2 of PTPσ were pre-incubated with test compounds 3071, 5205, 5075, or control for 15 min in a 96-well plate before the addition of Tyr Phosphopeptide (DADE(pY)LIPQQG). For IC50 determination, rates normalized relative to uninhibited controls (dimethyl sulfoxide (DMSO)) were plotted against compound concentration and fitted using a four-parameter nonlinear regression curve fit ((y = [(A − D) (1 + {xC − 1}B) − 1] + D) (Prism 6.0, Graphpad Software). For mechanism studies and determination of the enyzme’s Km and Vmax, data were analyzed using a nonlinear regression fit according to the classical Michaelis–Menten kinetics model, Y = Vmax*X/(Km + X) (Prism 6.0, Graphpad Software).

Structure (SMILES): O=C(/C=C\Nc1cccc([N+](=O)[O-])c1)c1ccccc1 [DJ001, (Z)-3-((3-nitrophenyl)amino)-1-phenylprop-2-en-1-one]
- homing of transplanted BM sca-1+lin− cells ([1]; 18 h, irradiated C57BL/6 mice): no effect on homing
- percentage of donor DsRed+ cells in the BM, per mouse (Supplementary Figure 8b) ([1]; 18 hours, 5 mg/kg DJ001 subcutaneously, 5 mg/kg): 0.19% and 0.183% and 0.207%
- DJ001-mediated recovery of hematopoietic progenitor cells with silencing of Rac1 or Bcl2l1 (BM KSL cells; BM KSL cells, 48 h following 300 cGy): blocked DJ001-mediated recovery of hematopoietic progenitor cells
- Figure 3i: BFU-E (BM KSL cells; shBcl-xL): 1
- Figure 3i: CFU-GM (BM KSL cells; shBcl-xL): 9 and 11 and 10
- Figure 3i: GEMM (BM KSL cells; shBcl-xL): 2 and 1 (2×)
- Figure 3i: BFU-E (BM KSL cells; shCtrl): 2 and 3 (4×) and 4 (2×) and 5 (2×)
- Figure 3i: CFU-GM (BM KSL cells; shCtrl): 26 (3×) and 30 and 29 (2×) and 20 and 31 and 28
- Figure 3i: GEMM (BM KSL cells; shCtrl): 5 (3×) and 13 and 8 (2×) and 7 and 10 and 9
- Figure 3i: BFU-E (BM KSL cells; shRac1): 1 (2×) and 0
- Figure 3i: CFU-GM (BM KSL cells; shRac1): 12 and 10 (2×)
- Figure 3i: GEMM (BM KSL cells; shRac1): 2 and 0 and 3
- BCL-XL protein levels (BCL-XL in BM KSL cells; 300 cGy-irradiated BM KSL cells): increased
- Figure 3h: BCL-XL protein in BM KSL cells (BCL-XL in BM KSL cells; irradiated cells, replicates): 17.43 and 16.61 and 16.35 and 15.49 and 16.56 and 12.16
- substrate titration source data, rate per replicate (PTPσ; 25M DJ001, Substrate 50 uM): 9
- substrate titration source data, rate per replicate (PTPσ; 25M DJ001, Substrate 50 uM, 25 µM DJ001): 12.3
- substrate titration source data, rate per replicate (PTPσ; 25M DJ001, Substrate 100 uM): 13.4
- substrate titration source data, rate per replicate (PTPσ; 25M DJ001, Substrate 100 uM, 25 µM DJ001): 16.2
- substrate titration source data, rate per replicate (PTPσ; 25M DJ001, Substrate 200 uM): 26.7
- substrate titration source data, rate per replicate (PTPσ; 25M DJ001, Substrate 200 uM, 25 µM DJ001): 26
- substrate titration source data, rate per replicate (PTPσ; 25M DJ001, Substrate 400 uM): 42.9
- substrate titration source data, rate per replicate (PTPσ; 25M DJ001, Substrate 400 uM, 25 µM DJ001): 40.9
- substrate titration source data, rate per replicate (PTPσ; 25M DJ001, Substrate 800 uM): 54.8
- substrate titration source data, rate per replicate (PTPσ; 25M DJ001, Substrate 800 uM, 25 µM DJ001): 50.4
- substrate titration source data, rate per replicate (PTPσ; 25M DJ001, Substrate 1200 uM): 57.8
- substrate titration source data, rate per replicate (PTPσ; 25M DJ001, Substrate 1200 uM, 25 µM DJ001): 55.4
- substrate titration source data, rate per replicate (PTPσ; 50M DJ001, Substrate 50 uM, 50 µM DJ001): 7.7 and 8
- substrate titration source data, rate per replicate (PTPσ; 50M DJ001, Substrate 100 uM, 50 µM DJ001): 9.1 and 9.9
- substrate titration source data, rate per replicate (PTPσ; 50M DJ001, Substrate 200 uM, 50 µM DJ001): 14.1 and 15.3
- substrate titration source data, rate per replicate (PTPσ; 50M DJ001, Substrate 400 uM, 50 µM DJ001): 23.2 and 23.4
- substrate titration source data, rate per replicate (PTPσ; 50M DJ001, Substrate 800 uM, 50 µM DJ001): 28.7 and 27
- substrate titration source data, rate per replicate (PTPσ; 50M DJ001, Substrate 1200 uM, 50 µM DJ001): 34.7 and 35
- substrate titration source data, rate per replicate (PTPσ; 100M DJ001, Substrate 50 uM): 7.7 and 7.4
- substrate titration source data, rate per replicate (PTPσ; 100M DJ001, Substrate 100 uM): 7.7
- substrate titration source data, rate per replicate (PTPσ; 100M DJ001, Substrate 200 uM): 8.9
- substrate titration source data, rate per replicate (PTPσ; 100M DJ001, Substrate 400 uM): 13.4 and 13.9
- substrate titration source data, rate per replicate (PTPσ; 100M DJ001, Substrate 800 uM): 17.3 and 16.7
- substrate titration source data, rate per replicate (PTPσ; 100M DJ001, Substrate 1200 uM): 25.5 and 23.8
- mechanism of PTPσ inhibition (PTPσ; substrate titration, inhibits Vmax, constant Km): non-competitive inhibitor
